Assay: Human HepG2 cell viability assay in 384 well format
Format: toxicity, cell-based
Design: dose 125 nL, time 70.5 hour; concentration not given beside the values
Settings: HepG2 cells, read-out: Inhibition

| SMILES | cytotoxicity at 70.5 h |
| --- | --- |
| O=C(NC1(c2nc(C3CC3)no2)CCCCC1)c1cccnc1O | 3.05% |
| COc1nn(C)cc1C(=O)N1CCC(c2nnc(-c3ccsc3)o2)CC1 | -6.31% |
| Cc1nnc(C2CCN(C(=O)c3ccc4[nH]ccc4c3)CC2)s1 | -5.35% |
| CCCC(=O)N1CCC(c2nn(C)c(=O)n2-c2ccccc2)CC1 | -10.4% |
| CCSc1ccccc1C(=O)NCCn1nc(C(F)(F)F)n(C)c1=O | -4.82% |
| Cn1c(C(F)(F)F)nn(CCNC(=O)c2ccccn2)c1=O | -7.74% |
| COCCNC(=O)NCCn1nc(C(F)(F)F)n(C)c1=O | -4.7% |
| O=C(CN1CCC(c2nnc(C(F)(F)F)o2)CC1)Nc1cccc(Cl)c1 | 19.3% |
| CNC(=O)c1nnn(-c2ccccc2F)c1-c1ccccn1 | 0.41% |
| CN1CCN(c2cc(NC(=O)c3cnccn3)ncn2)CC1 | 0.507% |
| O=C(Cc1ccccc1Cl)Nc1cc(N2CCCC2)ncn1 | -0.171% |
| Cc1ccccc1NC(=O)Nc1cc(N2CCCC2)ncn1 | 10.8% |
| CC1CCN(c2cc(NC(=O)C3CC3)ncn2)CC1 | 0.806% |
| Cc1cc(=O)n(CCNS(=O)(=O)c2ccccc2)cn1 | -1.2% |
| O=C(NCCn1cnc(C2CCCC2)cc1=O)NCc1cccs1 | -7.11% |
| Cc1ncn(CCNC(=O)Nc2ccccc2)c(=O)c1C | 21.4% |
| Cn1nc(N2CCCC(C(=O)Nc3nc4ccccc4s3)C2)ccc1=O (stereo unspecified) | 1.88% |
| CCOc1cc(NC(=O)C2CC(=O)N(c3cccc(OC)c3)C2)ncn1 (stereo unspecified) | -2.94% |
| O=C(c1ccc(F)cc1F)N(CC(F)(F)F)C1CCOCC1 | -4.08% |
| Cn1nc(C(=O)N2CC(Oc3nc4c(Cl)cccc4s3)C2)ccc1=O | -8.11% |
| COc1cccc2sc(OC3CN(C(=O)C4=COCCO4)C3)nc12 | -8.14% |
| COCC(C)(O)CNC(=O)c1cc(-c2cc(OC)ccc2OC)nn1C (stereo unspecified) | 6.52% |
| O=C(NCCOc1ccccc1)NCC(O)c1cccs1 (stereo unspecified) | -11.8% |

| SMILES | cytotoxicity at 70.5 h |
| --- | --- |
| CCOCC(=O)NCCc1nc(C2CC2)cc(C(F)(F)F)n1 | -4.83% |
| CC(=O)NCc1cc(-c2cccs2)n(C2CCCC2)n1 | -2.19% |
| COCCNC(=O)NCc1cc(-c2cccs2)n(C2CCCC2)n1 | -8.68% |
| COCCNC(=O)NCc1cc(-c2ccncc2)n(C2CCCC2)n1 | -13.6% |
| O=C1CCSCC(C(=O)NCc2nc(-c3ccccc3)no2)N1 (stereo unspecified) | -11.9% |
| Cc1noc(CNC(=O)C2CSCCC(=O)N2)n1 (stereo unspecified) | -12.9% |
| Cn1nnc2c(N3CC(C(=O)NCCC4=CCCCC4)C3)ncnc21 | -18.5% |
| Cn1nnc2c(N3CC(C(=O)NCc4cccs4)C3)ncnc21 | -1.73% |
| O=C(O)CC(CC(=O)NCc1ccsc1)c1cccs1 (stereo unspecified) | -5.7% |
| Cn1cccc1CN(C(=O)CC(CC(=O)O)c1cccs1)C1CC1 (stereo unspecified) | -9.4% |
| Cc1ccc(S(=O)(=O)NCC(O)c2ccoc2)s1 (stereo unspecified) | -12.5% |
| O=S(=O)(NCC(O)c1ccoc1)c1ccc(Cl)s1 (stereo unspecified) | 23% |
| O=S(=O)(NCC(O)c1ccoc1)c1ccc(Br)s1 (stereo unspecified) | -1.32% |
| O=C(NCc1cccs1)NCC(O)c1ccoc1 (stereo unspecified) | -3.33% |
| O=C(Cc1ccc(F)cc1)NCCc1ccoc1 | -5.69% |
| CCOc1ccccc1NC(=O)NCCc1ccoc1 | 12.2% |
| CC(C)(C)NC(=O)N1CCC(Oc2ccc(C(F)(F)F)cn2)CC1 | -6.24% |
| O=C(c1cnccn1)N1CCC(Oc2ncccc2Cl)CC1 | 4.06% |
| O=C(c1cc(C2CC2)on1)N1CCC(Oc2ncccc2Cl)CC1 | -6.96% |
| N#Cc1cccnc1OC1CCN(C(=O)c2cc(C3CC3)on2)CC1 | -6.54% |
| N#Cc1cccnc1OC1CCN(S(=O)(=O)c2ccc(Br)cc2)CC1 | -12.9% |
| Cn1nc(C(=O)N2CCC(Oc3ccc(C#N)cn3)CC2)ccc1=O | -11% |
| CN1CCCC(C(=O)N2CCC(Oc3ccc(C#N)cn3)CC2)C1 (stereo unspecified) | -5.58% |

| SMILES | cytotoxicity at 70.5 h |
| --- | --- |
| N#Cc1ccc(C(=O)N2CCC(Oc3ccc(C#N)cn3)CC2)cc1 | -3.02% |
| O=C(Cn1ccc2ccccc21)N1CCC(Oc2cnccn2)CC1 | -7% |
| O=C(Cn1cccn1)N1CCC(Oc2cnccn2)CC1 | -6.46% |
| CN(C)S(=O)(=O)N1CCC(Oc2cccnn2)CC1 | 0.601% |
| Cc1ccc(S(=O)(=O)N2CCC(Oc3cccnn3)CC2)c(C)c1 | -8.17% |
| COC(=O)c1ccc(S(=O)(=O)N2CCC(Oc3cccnn3)CC2)cc1 | -8.01% |
| O=C(Cn1ccc2ccccc21)N1CCC(Oc2ncccc2Br)CC1 | -3.13% |
| Cc1cccc(OC2CCN(C(=O)c3ccc4c(c3)OCO4)CC2)n1 | -7.71% |
| Cc1cccc(OC2CCN(S(=O)(=O)Cc3cccc(F)c3)CC2)n1 | -1.18% |
| COC(=O)c1sccc1S(=O)(=O)N1CCC(Oc2cccc(C)n2)CC1 | -9.62% |
| O=C(COc1ccc(-n2cccn2)nn1)NC1CCCCC1 | 0.192% |
| O=C(Nc1cnc(Oc2ccccc2F)nc1)C1CC1 | -3.71% |
| Cc1ccc(C)c(S(=O)(=O)NCCNc2ccc(-n3cccc3)nn2)c1 | -7.55% |
| CC(=O)N1CCN(c2cc(-n3cccc3)ncn2)CC1 | -7.94% |
| CS(=O)(=O)N1CCCC12CCCN(C(=O)c1ccc3c(c1)OCO3)C2 (stereo unspecified) | -7.38% |
| COCC(=O)N1CCC2(CC(=O)N(c3cccc(F)c3)C2)C1 (stereo unspecified) | -9.01% |
| Cc1noc(C)c1CN1C[C@@H]2OCCN(Cc3cnn(C)c3)[C@@H]2C1 | -21.6% |
| CN1CCN(C(=O)c2n[nH]c3c2CCN(Cc2nccs2)C3)CC1 | -11.9% |
| COCC1c2nnn(CC3CC3)c2CCN1C(=O)N1CCCC1 (stereo unspecified) | 14.1% |
| COCC1c2nnn(CC3CC3)c2CCN1C(=O)c1cccn1C (stereo unspecified) | 9.68% |
| CC(C)NC(=O)N1CCCn2cnc(CN3CCCC3=O)c2C1 | 27.9% |
| Cc1noc(C2CCC3(CCN(C(=O)c4cnccn4)CC3)O2)n1 (stereo unspecified) | 3.99% |
| Cc1noc(C2CCC3(CCN(C(=O)C4CCOCC4)CC3)O2)n1 (stereo unspecified) | 2.64% |

| SMILES | cytotoxicity at 70.5 h |
| --- | --- |
| CCS(=O)(=O)N1CCc2cc(C(=O)N(C)C)c(NCC3CC3)nc2CC1 | 0.785% |
| Cc1occc1C(=O)N1CCCn2cnc(CN3CCCC3=O)c2C1 | -0.779% |
| CN(C)C(=O)N1CCC2(CC1)COCCN(c1ncccn1)C2 | -3.19% |
| Cc1cc(C(=O)N2CCc3ncnc(-c4cnn(C)c4)c3CC2)no1 | 2.85% |
| Cc1ccccc1C(=O)N1CCCn2cnc(CN3CCCC3=O)c2C1 | -4.3% |
| CC(C)NC(=O)N1CCC2(CC1)COc1ccccc1S(=O)(=O)N(C)C2 | 0.573% |
| CCOCC1CN(S(=O)(=O)C2CC2)Cc2ncn(CC3CC3)c21 (stereo unspecified) | -4.92% |
| Cc1ccc(C(=O)N2CCc3ncnc(-c4cnn(C)c4)c3CC2)o1 | -7.08% |
| COCC1CN(S(=O)(=O)C2CC2)Cc2ncn(CC3CC3)c21 (stereo unspecified) | -1.47% |
| O=C1CCCN1Cc1ncn2c1CN(C(=O)Cc1ccccc1)CCC2 | 0.61% |
| Cc1noc(C2CCC3(CCN(C(=O)c4cnn(C)c4)CC3)O2)n1 (stereo unspecified) | -10.3% |
| CN(C)CC(=O)N1CCC2(CC1)COc1ccccc1S(=O)(=O)N(C)C2 | 0.316% |
| COCC(=O)N1CCC2(CC1)COc1ccccc1S(=O)(=O)N(C)C2 | 0.748% |
| COCC1CN(C(=O)CS(C)(=O)=O)Cc2ncn(CC3CC3)c21 (stereo unspecified) | 1.88% |
| Cc1cccc(S(=O)(=O)N2CCCC3(CCCN3S(C)(=O)=O)C2)c1 (stereo unspecified) | 3.22% |
| COCc1ncn2c1CN(C(=O)Nc1ccccc1)CC2 | -4.33% |
| COCC(=O)N1CCC2(COCc3cnc(NCc4ccco4)nc32)C1 (stereo unspecified) | -2.26% |
| Cc1nccc([C@H]2C[C@@H]3CCN(S(=O)(=O)C4CC4)C[C@H]3O2)n1 | 0.462% |
| Cc1nccc([C@@H]2C[C@@H]3CCN(S(=O)(=O)C4CC4)C[C@H]3O2)n1 | -1.95% |
| CS(=O)(=O)N1CCCC12CCCN(S(=O)(=O)c1cccc(F)c1)C2 (stereo unspecified) | 2.16% |
| CNC(=O)[C@@]12CCC3(CCNCC3)[C@@H]1CN(S(C)(=O)=O)C2 | 4.08% |
| O=C(c1cocn1)N1CC[C@H]2OCC[C@@]2(COc2ncccc2F)C1 | -15.1% |
| COCC1CN(S(=O)(=O)N(C)C)Cc2ncn(CC3CC3)c21 (stereo unspecified) | 2.72% |

| SMILES | cytotoxicity at 70.5 h |
| --- | --- |
| CCOCC(=O)N1CCOCC2(CCN(c3ncccn3)C2)C1 (stereo unspecified) | 2.44% |
| O=C(NCC1CC1)[C@@H]1CC[C@@H]2[C@@H](CCN2Cc2ccc(F)c(F)c2)O1 | 2.42% |
| COc1ccc(CN2CC[C@H]3O[C@@H](C(=O)NCC4CC4)CC[C@H]32)cc1 | -8.24% |
| Cc1ccc(CN2Cc3nnn(C)c3C(COCc3ccccc3)C2)s1 (stereo unspecified) | 4.74% |
| COCc1ncn2c1CN(C(=O)c1ccc3ccccc3n1)CC2 | 6.36% |
| CS(=O)(=O)NC1CC2(CCN(CCF)CC2)Oc2ccccc21 (stereo unspecified) | -4.96% |
| CN(C)C(=O)COC[C@]12COC[C@H]1CN(Cc1ccco1)C2 | 0.692% |
| O=C(c1ccncc1F)N1CC[C@@H]2OC(COCC3CC3)CC[C@@H]21 (stereo partly specified) | 5.27% |
| CC(C)CN1CCC2(CC1)CC(NS(C)(=O)=O)c1ccccc1O2 (stereo unspecified) | 3.23% |
| CC(C)CN1CCC2(CC1)C(=O)Nc1ccc(C(=O)NC(C)C)cc12 | -0.986% |
| O=C1CC2(CCN(Cc3cccnc3)C2)CN1c1cccc(F)c1 (stereo unspecified) | -16.5% |
| Cc1ccc2c(n1)N(CCn1cccn1)CCN(CC1CC1)C2 | -3.95% |
| Cc1ccc2c(n1)N(CCn1cccn1)CCN(C1CCOCC1)C2 | -5.52% |
| Cc1ccc(CN2Cc3nnn(C)c3C(COCc3ccccn3)C2)s1 (stereo unspecified) | -0.991% |
| COCCN1CCc2cc(C(=O)NC(C)C)c(NCC3CC3)nc2CC1 | -0.245% |
| CCn1nnc2c1C(COCCN(C)C)CN(Cc1ccc(C)s1)C2 (stereo unspecified) | 3.05% |
| CC(C)CCN1CCc2cc(C(=O)N(C)C)c(NCC3CC3)nc2CC1 | 5.09% |
| COCCO[C@H]1CCN(Cc2ccsc2)[C@H]1Cc1cccnc1 | 24.4% |
| CCn1ncc2c1C(COC)CN(Cc1cccnc1)C2 (stereo unspecified) | 21.4% |

From ChEMBL document CHEMBL3507680, “University of Dundee, Gates Library screen for HepG2 cell viability”
